In patent US10759905B2, “Biodegradable amphiphilic polymer, polymeric vesicles prepared therefrom, and application of biodegradable amphiphilic polymer in preparation of medicines for targeted therapy of lung cancer” (priority 2015, dated 2020):
Where a name gives a salt, the structure may show the parent alone.

What was measured:
[1] = tested on: H460 human lung cancer cells; assay: MTT assay, toxicity of drug-loaded vesicles on H460 cells; type: cell-based; conditions: NCI-H460, 4 h co-cultivation, then 44 h in fresh medium
Experimental: MTT assay was used to test the toxicity of the polymeric vesicles on H460 human lung cancer cells. […] After co-cultivation for 4 hours, the samples were aspirated and replaced with fresh medium to continue incubation for 44 hours. The subsequent addition of MTT, treatment, and measurement of absorbance were the same as those in Example 26.

[2] = tested on: H460 subcutaneous lung cancer; assay: Anti-tumor effect in mice bearing H460 subcutaneous lung cancer; type: in vivo
Description: The establishment of a subcutaneous H460 tumor-bearing mice model was the same as that in Example 33.

[3] = tested on: orthotopic A549 lung cancer (A549-Luc); conditions: for bioluminescence intensity of the lung tumor / tumor growth: i.v. on Days 0, 4, 8 and 12, within 16 days; for survival of the mice (all survived / all dead): orthotopic A549
Experimental: Balb/C nude mice weighing approximately 18 to 20 grams (aged 4 to 6 weeks) were selected for the experiment. 5×10^6 bioluminescent A549 human lung cancer cells (A549-Luc) were directly injected in the lungs. After about 10 days, the mice were observed by an in vivo imaging system for small animals. […] From Day 0 to Day 16, the body weights of the mice were measured every four days. The bioluminescence intensity of the lung tumor in mice was monitored using an in vivo imaging system for small animals. The survival of the mice was observed up to 45 days.
The PTG-loaded cRGD/CLPs, the non-targeted self-crosslinked polymeric vesicle CLPs, Taxol, and PBS were injected into mice, respectively.

A549 lung cancer cells = assay: MTT assay, toxicity of drug-loaded vesicles on A549 cells; type: cell-based; conditions: Homo sapiens, A549, read-out: half inhibition concentration (IC50) for A549 cells
Experimental: The toxicity of the polymeric vesicles on A549 cells was tested by MTT assay. […] The concentrations of DOX.HCl were 0.01, 0.1, 0.5, 1, 5, 10, 20 and 40 μg/mL, respectively. The content of the targeting molecules ranged from 10%, 20% to 30%; the non-targeted drug-loaded self-crosslinked polymeric vesicle group and the free DOX.HCl group were used as control groups. After co-cultivation for 4 hours, the samples were aspirated and replaced with fresh medium to continue incubation for 44 hours.

[4] = tested on: A549 subcutaneous lung cancer; assay: Anti-tumor effect in mice bearing A549 subcutaneous lung cancer; type: in vivo; conditions: i.v. on Day 0, 4, 8 and 12, DOX 10 mg/kg; Day 18
Experimental: The volumes of the tumor were measured by a vernier caliper. The tumor volume was calculated as: V=(L×W×H)/2 (wherein L was the tumor length, W was the tumor width, and H was the tumor thickness). The survival of the mice were observed up to 45 days.
The establishment of a subcutaneous A549 tumor-bearing mice model, administration via tail vein, and data collection were the same as those in Example 37.

in vivo = conditions: Balb/C nude, mouse, iv, 10 mg/kg

| Compound | IC50 [1] [µg/mL] | body weight decrease ([2]; Day 10) [%] | tumor growth ([2]; i.v., CPT.HCl, Day 18) | survival of the mice (all survived / all dead) ([2]; subcutaneous H460) [days] | body weight decrease ([3]; Day 3) [%] | bioluminescence intensity of the lung tumor / tumor growth [3] | survival of the mice (all survived / all dead) [3] [days] | IC50 (A549 lung cancer cells) [µg/mL] | tumor growth [4] | half-life (in vivo) [min] |
| --- | --- | --- | --- | --- | --- | --- | --- | --- | --- | --- |
| CCc1c2c(nc3ccc(OC(=O)N4CCC(N5CCCCC5)CC4)cc13)-c1cc3c(c(=O)n1C2)COC(=O)[C@]3(O)CC [CPT.HCl, irinotecan hydrochloride] | 3.09 | 18 | could also inhibit the growth of tumor | ≤ 28 | 21 | could also inhibit the growth of tumor | ≤ 34 |  |  |  |
| COc1cccc2c1C(=O)c1c(O)c3c(c(O)c1C2=O)C[C@@](O)(C(=O)CO)C[C@@H]3O[C@H]1C[C@H](N)[C@H](O)[C@H](C)O1 [DOX.HCl, doxorubicin hydrochloride] |  |  |  |  |  | could also inhibit the growth of tumor | ≤ 30 | 4.89 | could also inhibit the growth of tumor | 16.2 |
| CC(=O)O[C@H]1C(=O)[C@@]2(C)[C@H]([C@H](OC(=O)c3ccccc3)[C@]3(O)C[C@H](OC(=O)[C@H](O)[C@@H](NC(=O)c4ccccc4)c4ccccc4)C(C)=C1C3(C)C)[C@]1(OC(C)=O)CO[C@@H]1C[C@@H]2O [PTX, paclitaxel] |  |  |  |  |  | could also inhibit the growth of tumor | ≤ 29 |  |  |  |
